Laboratory results taken from ChEMBL document CHEMBL1150496, “Synthesis and biological activity of C-5 modified derivatives of (+)-AJ76 and (+)-UH232: Increased dopamine D3 receptor preference and improved pharmacokinetic properties” (Bioorg Med Chem Lett, 1994).
The source made the active and inactive calls. The rule behind the calls is not given here.

What was measured:
[1] = system: Rattus norvegicus; test: In vivo DOPAC level was measured in killed rat striatal brain regions at a dose of 100 umol/kg, sc; assay type: functional; design: unit not given here
[2] = target: T1, 5-hydroxytryptamine receptor 1A (Homo sapiens, UniProt P08908); test: (§1) Binding affinity was measured at cloned mammalian 5-HT1A receptor expressed in CHO-K1 cells (using [3H]8-OH-DPAT ); assay type: cell-based
T1 sequence (P08908 whole entry): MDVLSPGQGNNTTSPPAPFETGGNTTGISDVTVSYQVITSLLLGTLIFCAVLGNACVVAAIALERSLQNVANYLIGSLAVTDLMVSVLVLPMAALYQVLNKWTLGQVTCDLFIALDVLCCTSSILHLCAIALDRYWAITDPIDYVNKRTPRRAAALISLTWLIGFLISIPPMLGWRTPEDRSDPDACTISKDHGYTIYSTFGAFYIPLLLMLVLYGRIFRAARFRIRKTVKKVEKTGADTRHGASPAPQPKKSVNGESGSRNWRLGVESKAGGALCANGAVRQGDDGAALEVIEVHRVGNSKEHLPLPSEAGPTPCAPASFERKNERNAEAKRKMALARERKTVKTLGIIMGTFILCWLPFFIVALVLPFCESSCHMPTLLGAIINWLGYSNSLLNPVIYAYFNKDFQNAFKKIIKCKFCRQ

[3] = system: Rattus norvegicus; test: In vivo 5-HIAA level was measured in killed rat limbic brain regions at a dose of 100 umol/kg, sc; assay type: functional, Limbic system; design: unit not given here
[4] = system: Rattus norvegicus; test: In vivo 5-HIAA level was measured in killed rat limbic brain regions at a dose of 25 umol/kg, sc; assay type: functional, Limbic system
[5] = target: T2, D(4) dopamine receptor (Homo sapiens, UniProt P21917); test: Binding affinity was measured at cloned mammalian dopamine D4 receptor expressed in CHO-K1 cells (using [3H]- spiperone); NA means inactive; assay type: cell-based
T2 sequence (P21917 whole entry): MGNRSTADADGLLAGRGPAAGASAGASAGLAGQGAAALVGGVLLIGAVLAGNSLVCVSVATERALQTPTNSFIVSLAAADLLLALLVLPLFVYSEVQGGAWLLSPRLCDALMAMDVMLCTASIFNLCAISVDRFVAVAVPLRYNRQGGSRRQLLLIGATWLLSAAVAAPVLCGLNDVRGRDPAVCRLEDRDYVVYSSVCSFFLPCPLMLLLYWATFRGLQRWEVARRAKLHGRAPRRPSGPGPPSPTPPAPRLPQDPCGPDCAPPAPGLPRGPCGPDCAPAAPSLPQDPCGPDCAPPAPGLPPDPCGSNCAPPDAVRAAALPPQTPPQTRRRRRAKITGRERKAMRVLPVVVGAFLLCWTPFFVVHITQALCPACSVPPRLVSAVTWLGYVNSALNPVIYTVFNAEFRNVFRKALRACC

[6] = system: Rattus norvegicus; test: In vivo HVA level was measured in killed rat striatal brain regions at a dose of 100 umol/kg, sc; assay type: functional; design: unit not given here
[7] = target: D(2) dopamine receptor (Rattus norvegicus, UniProt P61169); test: Binding affinity was measured from rat striatal membrane using [3H]-spiperone at D2 receptors
[8] = target: T3, D(4) dopamine receptor (Homo sapiens) (UniProt P21917); test: Percent inhibition against dopamine D4 receptor at a concentration of 1 umol/L
T3 sequence (whole entry): T2 sequence (P21917 whole entry)

[9] = target: D(3) dopamine receptor (Rattus norvegicus) (UniProt P19020); test: Percent inhibition against dopamine D3 receptor at a concentration of 1 umol/L
[10] = target: T4, D(2) dopamine receptor (Homo sapiens, UniProt P14416); test: Binding affinity was measured at cloned mammalian dopamine D2 receptor expressed in CHO-K1 cells (using [3H]U-86,170); NA means Inactive; assay type: cell-based
[11] = system: Rattus norvegicus; test: In vivo locomotor activity (LMA) in habituated rats at a dose of 25 umol/kg, sc, for 60 mins after 60 min habituation period; assay type: functional
[12] = system: Rattus norvegicus; test: In vivo locomotor activity (LMA) in habituated rats at a dose of 100 umol/kg, sc, for 60 mins after 60 min habituation period; assay type: functional; design: unit not given here
[13] = system: Rattus norvegicus; test: In vivo HVA level was measured in killed rat striatal brain regions at a dose of 25 umol/kg, sc; assay type: functional
[14] = target: T4, D(2) dopamine receptor; test: Percent inhibition against dopamine D2 receptor at a concentration of 1 umol/L
[15] = system: Rattus norvegicus; test: In vivo DOPAC level was measured in killed rat striatal brain regions at a dose of 25 umol/kg, sc; assay type: functional
[16] = target: D(3) dopamine receptor (Rattus norvegicus, UniProt P19020); test: Binding affinity was measured at cloned mammalian dopamine D3 receptor expressed in CHO-K1 cells (using [3H]- spiperone); NA means inactive; assay type: cell-based
[17] = target: T4, D(2) dopamine receptor; test: Binding affinity was measured at cloned mammalian dopamine D2 receptor expressed in CHO-K1 cells (using [3H]U-86170); assay type: cell-based
[18] = system: Rattus norvegicus; test: In vivo DOPAC level was measured in killed rat striatal brain regions at a dose of 50 umol/kg, sc; assay type: functional
[19] = In vivo percent of absolute bioavailability obtained from blood plasma levels analyzed by means of GC/MS (dose 5 uM/kg i.v. and 40 uM/kg, p.o.); assay type: ADME, organism-based; settings: rat, po
[20] = system: Rattus norvegicus; test: In vivo locomotor activity (LMA) in habituated rats at a dose of 12.5 umol/kg, sc, for 60 mins after 60 min habituation period; assay type: functional
[21] = system: Rattus norvegicus; test: In vivo DOPAC level was measured in killed rat striatal brain regions at a dose of 12.5 umol/kg, sc; assay type: functional
[22] = system: Rattus norvegicus; test: In vivo 5-HIAA level was measured in killed rat limbic brain regions at a dose of 50 umol/kg, sc; assay type: functional, Limbic system
[23] = system: Rattus norvegicus; test: In vivo 5-HIAA level was measured in killed rat limbic brain regions at a dose of 12.5 umol/kg, sc; assay type: functional, Limbic system
[24] = system: Rattus norvegicus; test: In vivo HVA level was measured in killed rat striatal brain regions at a dose of 12.5 umol/kg, sc; assay type: functional
[25] = Half-life was estimated from the elimination phase of the oral [C] vs time curves in 4 rats; assay type: ADME, organism-based; settings: rat, in vivo
[26] = system: Rattus norvegicus; test: In vivo HVA level was measured in killed rat striatal brain regions at a dose of 50 umol/kg, sc; assay type: functional
[27] = system: Rattus norvegicus; test: In vivo locomotor activity (LMA) in habituated rats at a dose of 50 umol/kg, sc, for 60 mins after 60 min habituation period; assay type: functional
[28] = target: T5, 5-hydroxytryptamine receptor 1A (Rattus norvegicus, UniProt P19327); test: Binding affinity was measured at 5-HT1A receptor in rat striatal membranes using [3H]8-OH-DPAT; assay type: cell membranes, Striatum, Membrane
T5 sequence (P19327 whole entry): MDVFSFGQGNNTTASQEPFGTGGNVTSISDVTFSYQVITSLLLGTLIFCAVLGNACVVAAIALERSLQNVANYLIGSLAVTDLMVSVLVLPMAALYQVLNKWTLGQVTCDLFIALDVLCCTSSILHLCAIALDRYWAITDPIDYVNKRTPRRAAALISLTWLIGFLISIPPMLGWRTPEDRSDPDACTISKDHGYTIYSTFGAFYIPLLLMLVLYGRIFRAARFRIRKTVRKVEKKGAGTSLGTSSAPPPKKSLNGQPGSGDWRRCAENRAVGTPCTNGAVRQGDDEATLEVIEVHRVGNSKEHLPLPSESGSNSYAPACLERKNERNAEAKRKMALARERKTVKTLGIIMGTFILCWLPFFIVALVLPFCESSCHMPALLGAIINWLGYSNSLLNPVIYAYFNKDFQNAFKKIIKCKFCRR

[29] = system: Rattus norvegicus; test: In vivo 5-HIAA level was measured in killed rat limbic brain regions at a dose of 200 umol/kg, sc; assay type: functional, Limbic system
[30] = target: 5-hydroxytryptamine receptor 1A (Homo sapiens, UniProt P08908); test: as §1; assay type: cell-based; remark: listed apart in the source
[31] = target: T2, D(4) dopamine receptor; test: Binding affinity was measured at cloned mammalian dopamine D4 receptor expressed in CHO-K1 cells (using [3H]- spiperone); assay type: cell-based
[32] = system: Rattus norvegicus; test: In vivo locomotor activity (LMA) in habituated rats at a dose of 200 umol/kg, sc, for 60 mins after 60 min habituation period; assay type: functional
[33] = system: Rattus norvegicus; test: In vivo HVA level was measured in killed rat striatal brain regions at a dose of 200 umol/kg, sc; assay type: functional
[34] = target: D(3) dopamine receptor (Homo sapiens, UniProt P35462); test: Binding affinity was measured at cloned mammalian dopamine D3 receptor expressed in CHO-K1 cells (using [3H]- spiperone); assay type: cell-based
[35] = system: Rattus norvegicus; test: In vivo DOPAC level was measured in killed rat striatal brain regions at a dose of 200 umol/kg, sc; assay type: functional
[36] = species on record: Rattus norvegicus; test: In vitro stability relative to (+)-AJ76 in rat hepatocyte assay; In active; assay type: functional
[37] = system: Rattus norvegicus; test: In vivo DOPAC level was measured in killed rat striatal brain regions at a dose of 100 umol/kg, oral.; assay type: functional
[38] = system: Rattus norvegicus; test: In vivo HVA level was measured in killed rat striatal brain regions at a dose of 100 umol/kg, oral.; assay type: functional
[39] = system: Rattus norvegicus; test: In vivo 5-HIAA level was measured in killed rat limbic brain regions at a dose of 100 umol/kg, oral; assay type: functional, Limbic system
[40] = system: Rattus norvegicus; test: In vivo locomotor activity (LMA) in habituated rats at a dose of 100 umol/kg, oral, for 60 mins after 60 min habituation period; assay type: functional

T4 sequence (P14416 whole entry): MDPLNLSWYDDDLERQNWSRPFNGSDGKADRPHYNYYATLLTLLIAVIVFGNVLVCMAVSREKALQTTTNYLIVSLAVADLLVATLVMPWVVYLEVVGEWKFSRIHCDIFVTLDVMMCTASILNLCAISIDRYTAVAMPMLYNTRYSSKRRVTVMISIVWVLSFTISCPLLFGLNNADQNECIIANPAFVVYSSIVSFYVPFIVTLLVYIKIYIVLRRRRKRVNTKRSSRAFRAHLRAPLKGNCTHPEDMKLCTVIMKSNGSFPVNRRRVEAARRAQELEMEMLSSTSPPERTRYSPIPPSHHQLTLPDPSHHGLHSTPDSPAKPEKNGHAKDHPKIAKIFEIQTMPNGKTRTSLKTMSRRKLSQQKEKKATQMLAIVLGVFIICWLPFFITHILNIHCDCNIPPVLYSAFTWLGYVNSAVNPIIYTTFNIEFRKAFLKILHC
Sequence of D(3) dopamine receptor (Homo sapiens, UniProt P35462) (P35462 whole entry): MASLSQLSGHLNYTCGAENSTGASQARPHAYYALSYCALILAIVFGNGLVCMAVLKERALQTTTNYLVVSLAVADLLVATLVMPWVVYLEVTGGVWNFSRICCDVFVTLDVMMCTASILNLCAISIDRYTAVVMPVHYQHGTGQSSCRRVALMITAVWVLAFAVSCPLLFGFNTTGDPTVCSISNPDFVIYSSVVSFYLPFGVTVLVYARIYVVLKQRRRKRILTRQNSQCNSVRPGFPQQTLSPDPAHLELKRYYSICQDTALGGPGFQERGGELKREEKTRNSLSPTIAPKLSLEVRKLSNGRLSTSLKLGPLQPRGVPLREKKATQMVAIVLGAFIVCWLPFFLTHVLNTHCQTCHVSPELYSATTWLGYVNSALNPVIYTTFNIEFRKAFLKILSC
Sequence of D(2) dopamine receptor (Rattus norvegicus, UniProt P61169) (P61169 whole entry): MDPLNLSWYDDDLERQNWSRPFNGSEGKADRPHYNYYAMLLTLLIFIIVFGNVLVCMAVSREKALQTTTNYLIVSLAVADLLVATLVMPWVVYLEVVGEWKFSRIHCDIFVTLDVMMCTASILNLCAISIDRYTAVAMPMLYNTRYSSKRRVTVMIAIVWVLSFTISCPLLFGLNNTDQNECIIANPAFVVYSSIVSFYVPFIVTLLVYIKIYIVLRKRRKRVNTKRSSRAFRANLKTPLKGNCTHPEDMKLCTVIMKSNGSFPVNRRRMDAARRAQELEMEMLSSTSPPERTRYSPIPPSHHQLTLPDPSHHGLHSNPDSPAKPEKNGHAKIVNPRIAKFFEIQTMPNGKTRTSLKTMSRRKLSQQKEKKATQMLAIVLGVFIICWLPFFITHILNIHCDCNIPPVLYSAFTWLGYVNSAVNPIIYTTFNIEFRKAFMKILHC
Sequence of D(3) dopamine receptor (Rattus norvegicus, UniProt P19020) (P19020 whole entry): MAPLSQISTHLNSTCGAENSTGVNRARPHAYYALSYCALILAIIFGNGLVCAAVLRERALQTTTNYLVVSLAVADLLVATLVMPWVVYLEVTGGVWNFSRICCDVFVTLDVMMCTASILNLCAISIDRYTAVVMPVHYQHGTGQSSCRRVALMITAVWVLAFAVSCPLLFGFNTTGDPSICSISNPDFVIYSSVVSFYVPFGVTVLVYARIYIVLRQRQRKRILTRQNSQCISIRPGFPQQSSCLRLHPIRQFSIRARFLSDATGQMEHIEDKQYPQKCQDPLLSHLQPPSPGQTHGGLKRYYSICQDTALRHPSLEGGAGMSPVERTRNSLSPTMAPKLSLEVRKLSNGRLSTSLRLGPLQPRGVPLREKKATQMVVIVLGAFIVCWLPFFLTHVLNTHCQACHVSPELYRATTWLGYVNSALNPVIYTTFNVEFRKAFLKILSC
Sequence of D(3) dopamine receptor (Rattus norvegicus) (P19020 whole entry): as above

Row | SMILES | Activity [1] | Activity [3] | Activity [6] | Activity [12] | Ki [17] [nM] | bioavailability [19] [%] | half-life [25] [h] | Activity [29] | Ki [30] [nM] | Ki [31] [nM] | Activity [32] | Activity [33] | Ki [34] [nM] | Activity [35] | other results
1 | CCCN[C@@H]1CCc2c(C#N)cccc2[C@@H]1C | <224 | 100 | <248 | 149 |  |  |  |  |  |  |  |  |  |  | Ki [2]: > 1790 nM; Activity [4]: 102; Ki [5]: Not Active; Ki [7]: 16700 nM; inhibition [8]: < 50%; inhibition [9]: < 50%; Ki [10]: Not Active; Activity [11]: 165; Activity [13]: 136; inhibition [14]: < 50%; Activity [15]: 121; Ki [16]: Not Active
2 | CCCN[C@@H]1CCc2c(OC)cccc2[C@@H]1C |  |  |  |  | 145 | 1.6 | 1 |  |  |  |  |  |  |  | Activity [18]: <346; Activity [20]: <272; Activity [21]: <220; Activity [22]: 127; Activity [23]: 121; Activity [24]: <251; Activity [26]: <402; Activity [27]: <354
3 | CCCN[C@@H]1CCc2c(C(N)=O)cccc2[C@@H]1C | 109 | 97 | 105 | 215 |  |  |  |  |  |  |  |  |  |  | Ki [28]: 6720 nM
4 | CCCN[C@@H]1CCc2c(C(=O)OC)cccc2[C@@H]1C |  |  |  |  | 2330 |  |  | <75 | 287 | 1590 | 102 | 120 | 253 | 117 | 
5 | CCCN(CCC)[C@@H]1CCc2c(C(N)=O)cccc2[C@@H]1C | 135 | 113 | 128 | 169 |  |  |  |  |  |  |  |  |  |  | 
6 | CCCN(CCC)[C@@H]1CCc2c(OS(=O)(=O)C(F)(F)F)cccc2[C@@H]1C |  |  |  |  | 546 | 9.4 | 6 | 94 | > 3450 | 121 | <250 | <163 | 40 | <146 | 
7 | CCCN[C@@H]1CCc2c(OS(=O)(=O)C(F)(F)F)cccc2[C@@H]1C |  |  |  |  | 2560 | 62.2 | 6 | 92 | 3070 | 621 | 167 | <135 | 171 | <130 | 
8 | CCCN(CCC)[C@@H]1CCc2c(OC)cccc2[C@@H]1C |  |  |  |  | 15 | 3.7 | 2.5 |  |  |  |  |  | 4.2 |  | Activity [20]: <191; Activity [36]: inactive; Activity [21]: <176; Activity [23]: 119; Activity [24]: <214; Activity [27]: <200
9 | CCCN(CCC)[C@@H]1CCc2c(C#N)cccc2[C@@H]1C | <213 | 95 | <241 | <334 |  |  |  |  |  |  |  |  |  |  | Activity [37]: <128; Activity [38]: <166; Ki [28]: 5040 nM; Activity [4]: 93; Ki [7]: 6670 nM; Activity [39]: 82; Activity [11]: 125; Activity [13]: <134; Activity [15]: <127; Activity [40]: <287
